Results: ChEMBL document CHEMBL5465560, “Selectivity Literature for EUbOPEN Chemogenomic Library” (2024)
Values belong to the compound of their own block, whether it stands above or below them.

Columns and labels:
[1] = molecular target: T1, Serine/threonine-protein kinase BRSK1 (Homo sapiens) (UniProt Q8TDC3); test: Selectivity interaction (KinomeScan (DiscoverX)) EUB0001049a BRSK1; conditions: at 1 µM
T1 sequence (whole entry): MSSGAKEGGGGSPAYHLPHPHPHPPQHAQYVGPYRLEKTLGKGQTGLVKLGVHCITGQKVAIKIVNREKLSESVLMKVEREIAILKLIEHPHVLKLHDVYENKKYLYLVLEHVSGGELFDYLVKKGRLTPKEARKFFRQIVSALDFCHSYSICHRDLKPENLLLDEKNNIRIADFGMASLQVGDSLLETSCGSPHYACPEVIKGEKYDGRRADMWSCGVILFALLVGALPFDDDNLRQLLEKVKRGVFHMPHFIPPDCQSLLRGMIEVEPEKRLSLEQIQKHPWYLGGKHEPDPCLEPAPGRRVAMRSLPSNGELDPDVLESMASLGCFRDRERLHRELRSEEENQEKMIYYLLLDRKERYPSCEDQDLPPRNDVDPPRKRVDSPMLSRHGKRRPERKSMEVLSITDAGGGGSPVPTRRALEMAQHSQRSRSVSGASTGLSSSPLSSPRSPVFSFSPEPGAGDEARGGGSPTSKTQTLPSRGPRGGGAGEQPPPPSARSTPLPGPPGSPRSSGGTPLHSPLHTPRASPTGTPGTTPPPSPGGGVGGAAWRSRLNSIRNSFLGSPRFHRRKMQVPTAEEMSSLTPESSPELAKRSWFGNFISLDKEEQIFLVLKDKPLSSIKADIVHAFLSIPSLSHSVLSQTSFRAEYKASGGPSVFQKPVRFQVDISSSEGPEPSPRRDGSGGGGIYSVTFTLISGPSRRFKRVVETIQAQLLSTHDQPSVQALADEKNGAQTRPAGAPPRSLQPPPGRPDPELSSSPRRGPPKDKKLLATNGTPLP

[2] = molecular target: Bromodomain-containing protein 9 (Homo sapiens) (UniProt Q9H8M2); test: Selectivity interaction (Bromodomain panel (DSF asssay)) EUB0000270b BRD9
[3] = molecular target: Serine/threonine-protein kinase/endoribonuclease IRE2 (Homo sapiens) (UniProt Q76MJ5); test: Selectivity interaction (LanthaScreen Eu Kinase Binding Assay) EUB0001632a ERN2; conditions: at 10 µM
[4] = molecular target: T2, Cyclin-dependent kinase 11A (Homo sapiens) (UniProt Q9UQ88); test: Selectivity interaction (KinomeScan (DiscoverX)) EUB0000595a CDK11A; conditions: at 10 µM
T2 sequence (whole entry): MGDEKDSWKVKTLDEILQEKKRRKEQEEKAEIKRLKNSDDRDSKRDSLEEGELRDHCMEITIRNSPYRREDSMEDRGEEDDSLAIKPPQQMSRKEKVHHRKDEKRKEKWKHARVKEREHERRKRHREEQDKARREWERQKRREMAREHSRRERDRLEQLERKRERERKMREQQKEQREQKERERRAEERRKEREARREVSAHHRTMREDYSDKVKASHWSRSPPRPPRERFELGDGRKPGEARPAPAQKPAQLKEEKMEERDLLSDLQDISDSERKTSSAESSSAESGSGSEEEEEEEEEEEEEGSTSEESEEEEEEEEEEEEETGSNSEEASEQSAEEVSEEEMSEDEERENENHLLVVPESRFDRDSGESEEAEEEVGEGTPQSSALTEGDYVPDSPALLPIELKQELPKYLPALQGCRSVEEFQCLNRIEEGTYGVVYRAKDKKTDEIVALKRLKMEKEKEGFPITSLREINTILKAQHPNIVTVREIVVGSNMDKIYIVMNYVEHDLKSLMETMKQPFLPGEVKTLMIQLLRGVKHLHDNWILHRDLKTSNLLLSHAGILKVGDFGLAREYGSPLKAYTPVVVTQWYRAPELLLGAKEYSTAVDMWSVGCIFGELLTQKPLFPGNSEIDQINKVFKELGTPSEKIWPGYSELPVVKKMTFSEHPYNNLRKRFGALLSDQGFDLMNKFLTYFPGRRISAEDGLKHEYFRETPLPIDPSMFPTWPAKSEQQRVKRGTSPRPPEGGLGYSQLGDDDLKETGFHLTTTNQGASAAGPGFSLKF

[5] = molecular target: Serine/threonine-protein kinase WNK2 (Homo sapiens) (UniProt Q9Y3S1); test: Selectivity interaction (KinomeScan (DiscoverX)) EUB0001079a WNK2; conditions: at 1 µM
[6] = molecular target: T3, Tyrosine-protein kinase Tec (Homo sapiens) (UniProt P42680); test: Selectivity interaction (ProQinase) EUB0000171b TEC
T3 sequence (whole entry): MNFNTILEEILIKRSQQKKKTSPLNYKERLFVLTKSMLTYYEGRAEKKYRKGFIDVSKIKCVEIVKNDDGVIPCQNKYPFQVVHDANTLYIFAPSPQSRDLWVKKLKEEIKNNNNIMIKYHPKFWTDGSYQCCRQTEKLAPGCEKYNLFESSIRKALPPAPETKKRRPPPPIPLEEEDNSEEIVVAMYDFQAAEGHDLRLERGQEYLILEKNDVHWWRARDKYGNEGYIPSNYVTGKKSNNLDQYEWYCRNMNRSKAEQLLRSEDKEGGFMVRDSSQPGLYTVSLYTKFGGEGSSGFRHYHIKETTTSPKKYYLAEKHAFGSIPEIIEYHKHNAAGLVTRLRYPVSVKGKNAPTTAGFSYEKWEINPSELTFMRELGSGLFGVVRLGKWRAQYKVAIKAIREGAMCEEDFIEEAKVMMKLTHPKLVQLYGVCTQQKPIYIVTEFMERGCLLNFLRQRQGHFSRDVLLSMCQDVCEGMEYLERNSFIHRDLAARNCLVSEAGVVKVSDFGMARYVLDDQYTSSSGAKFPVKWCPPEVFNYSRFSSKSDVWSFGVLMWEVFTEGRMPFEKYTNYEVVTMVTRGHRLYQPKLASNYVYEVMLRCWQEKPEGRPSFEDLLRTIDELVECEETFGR

[7] = molecular target: Serine/threonine-protein kinase SIK1 (Homo sapiens) (UniProt P57059); test: Selectivity interaction (KinomeScan (DiscoverX)) EUB0000655a SIK1; conditions: at 10 µM
[8] = molecular target: Serine/threonine-protein kinase 33 (Homo sapiens) (UniProt Q9BYT3); test: Selectivity interaction (KinomeScan (DiscoverX)) EUB0000666a STK33; conditions: at 10 µM
Sequence of Serine/threonine-protein kinase 33 (Homo sapiens) (Q9BYT3 whole entry, looked up): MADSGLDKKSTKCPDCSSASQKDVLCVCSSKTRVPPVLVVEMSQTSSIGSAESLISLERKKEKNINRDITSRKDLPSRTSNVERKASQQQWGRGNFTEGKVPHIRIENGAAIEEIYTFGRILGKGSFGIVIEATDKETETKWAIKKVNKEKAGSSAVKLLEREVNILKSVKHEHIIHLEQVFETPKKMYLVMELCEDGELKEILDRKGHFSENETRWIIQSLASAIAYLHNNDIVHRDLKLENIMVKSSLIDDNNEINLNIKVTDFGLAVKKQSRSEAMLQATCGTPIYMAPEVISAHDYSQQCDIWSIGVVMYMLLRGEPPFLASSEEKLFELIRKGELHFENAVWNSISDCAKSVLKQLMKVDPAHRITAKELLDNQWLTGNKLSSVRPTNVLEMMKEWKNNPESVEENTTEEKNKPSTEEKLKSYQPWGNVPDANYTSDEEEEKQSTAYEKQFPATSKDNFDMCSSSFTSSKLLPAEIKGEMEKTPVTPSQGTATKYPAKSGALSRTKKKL

Sequence of Serine/threonine-protein kinase WNK2 (Homo sapiens) (Q9Y3S1 whole entry): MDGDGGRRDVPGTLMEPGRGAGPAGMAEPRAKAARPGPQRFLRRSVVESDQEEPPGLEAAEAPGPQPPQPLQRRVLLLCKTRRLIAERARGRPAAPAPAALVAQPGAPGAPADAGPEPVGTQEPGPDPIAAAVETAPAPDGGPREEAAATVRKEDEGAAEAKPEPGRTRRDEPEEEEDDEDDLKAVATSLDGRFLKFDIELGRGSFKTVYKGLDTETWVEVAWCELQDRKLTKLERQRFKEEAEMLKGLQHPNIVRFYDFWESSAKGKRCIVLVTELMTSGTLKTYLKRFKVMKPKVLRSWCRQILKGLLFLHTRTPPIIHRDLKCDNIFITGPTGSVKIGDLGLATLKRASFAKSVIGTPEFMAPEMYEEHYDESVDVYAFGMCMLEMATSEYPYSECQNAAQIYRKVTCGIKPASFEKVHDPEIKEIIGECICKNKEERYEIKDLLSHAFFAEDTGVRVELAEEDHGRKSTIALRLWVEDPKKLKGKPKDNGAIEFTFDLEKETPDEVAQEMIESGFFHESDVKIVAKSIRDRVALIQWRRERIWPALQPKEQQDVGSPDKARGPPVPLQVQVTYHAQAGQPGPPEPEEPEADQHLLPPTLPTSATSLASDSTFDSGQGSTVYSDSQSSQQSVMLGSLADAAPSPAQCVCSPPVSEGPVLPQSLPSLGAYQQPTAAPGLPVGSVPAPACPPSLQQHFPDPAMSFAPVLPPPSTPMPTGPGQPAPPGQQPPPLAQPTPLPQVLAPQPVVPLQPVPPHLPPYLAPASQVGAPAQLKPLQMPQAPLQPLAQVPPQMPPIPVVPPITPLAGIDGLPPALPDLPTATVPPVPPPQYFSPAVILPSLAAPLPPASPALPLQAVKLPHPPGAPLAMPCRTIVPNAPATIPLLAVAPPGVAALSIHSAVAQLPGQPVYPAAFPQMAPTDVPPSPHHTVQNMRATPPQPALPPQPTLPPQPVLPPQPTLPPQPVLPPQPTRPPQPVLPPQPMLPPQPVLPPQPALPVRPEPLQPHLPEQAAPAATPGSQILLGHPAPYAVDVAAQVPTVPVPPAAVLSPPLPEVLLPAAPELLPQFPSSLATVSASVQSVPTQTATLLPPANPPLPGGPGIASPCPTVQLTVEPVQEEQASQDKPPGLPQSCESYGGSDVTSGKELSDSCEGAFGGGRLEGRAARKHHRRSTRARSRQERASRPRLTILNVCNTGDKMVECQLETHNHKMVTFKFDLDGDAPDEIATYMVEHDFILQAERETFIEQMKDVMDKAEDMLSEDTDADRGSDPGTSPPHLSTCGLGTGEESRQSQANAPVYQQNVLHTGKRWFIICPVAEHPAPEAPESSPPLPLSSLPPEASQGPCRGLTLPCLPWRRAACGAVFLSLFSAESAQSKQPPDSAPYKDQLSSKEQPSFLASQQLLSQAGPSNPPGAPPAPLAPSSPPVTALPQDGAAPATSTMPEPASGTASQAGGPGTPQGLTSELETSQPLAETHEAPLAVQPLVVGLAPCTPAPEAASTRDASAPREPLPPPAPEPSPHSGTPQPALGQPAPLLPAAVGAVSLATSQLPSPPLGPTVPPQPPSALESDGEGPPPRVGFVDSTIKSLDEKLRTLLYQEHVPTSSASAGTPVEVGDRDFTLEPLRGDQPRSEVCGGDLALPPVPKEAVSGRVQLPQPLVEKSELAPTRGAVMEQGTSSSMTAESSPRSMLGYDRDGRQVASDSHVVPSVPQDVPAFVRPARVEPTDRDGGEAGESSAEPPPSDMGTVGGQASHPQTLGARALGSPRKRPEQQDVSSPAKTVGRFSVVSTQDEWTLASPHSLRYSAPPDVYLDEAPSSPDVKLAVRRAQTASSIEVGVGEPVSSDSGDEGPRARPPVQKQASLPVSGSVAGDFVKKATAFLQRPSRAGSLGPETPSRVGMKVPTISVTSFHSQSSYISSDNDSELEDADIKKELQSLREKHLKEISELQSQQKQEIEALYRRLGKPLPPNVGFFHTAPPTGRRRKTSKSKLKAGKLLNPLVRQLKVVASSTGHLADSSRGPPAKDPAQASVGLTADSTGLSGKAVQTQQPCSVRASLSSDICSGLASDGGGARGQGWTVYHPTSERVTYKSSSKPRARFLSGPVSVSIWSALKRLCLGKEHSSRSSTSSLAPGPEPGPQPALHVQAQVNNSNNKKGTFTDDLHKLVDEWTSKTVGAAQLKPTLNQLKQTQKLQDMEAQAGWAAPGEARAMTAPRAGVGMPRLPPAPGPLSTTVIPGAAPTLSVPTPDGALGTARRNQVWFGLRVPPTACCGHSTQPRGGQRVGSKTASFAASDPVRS
Sequence of Serine/threonine-protein kinase SIK1 (Homo sapiens) (P57059 whole entry): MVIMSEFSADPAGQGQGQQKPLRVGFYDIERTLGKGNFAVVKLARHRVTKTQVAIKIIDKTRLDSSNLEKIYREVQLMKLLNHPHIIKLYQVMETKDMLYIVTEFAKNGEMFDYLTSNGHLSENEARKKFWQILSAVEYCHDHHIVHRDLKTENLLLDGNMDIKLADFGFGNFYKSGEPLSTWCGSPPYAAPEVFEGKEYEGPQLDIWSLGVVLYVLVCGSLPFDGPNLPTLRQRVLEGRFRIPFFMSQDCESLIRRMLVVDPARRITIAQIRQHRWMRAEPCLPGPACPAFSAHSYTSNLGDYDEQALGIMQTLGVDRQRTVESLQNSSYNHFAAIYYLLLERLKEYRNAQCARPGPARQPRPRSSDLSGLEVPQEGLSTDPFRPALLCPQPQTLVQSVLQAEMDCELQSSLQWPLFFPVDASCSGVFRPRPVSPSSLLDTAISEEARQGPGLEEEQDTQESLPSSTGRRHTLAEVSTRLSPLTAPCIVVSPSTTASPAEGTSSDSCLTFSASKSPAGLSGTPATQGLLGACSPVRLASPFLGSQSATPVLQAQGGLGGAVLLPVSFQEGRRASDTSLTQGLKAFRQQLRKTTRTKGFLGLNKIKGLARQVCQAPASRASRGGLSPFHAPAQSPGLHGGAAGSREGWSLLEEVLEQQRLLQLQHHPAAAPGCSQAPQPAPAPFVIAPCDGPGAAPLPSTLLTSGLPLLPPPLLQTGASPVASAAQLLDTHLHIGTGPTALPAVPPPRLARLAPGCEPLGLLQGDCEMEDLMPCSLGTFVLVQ
Sequence of Bromodomain-containing protein 9 (Homo sapiens) (Q9H8M2 whole entry): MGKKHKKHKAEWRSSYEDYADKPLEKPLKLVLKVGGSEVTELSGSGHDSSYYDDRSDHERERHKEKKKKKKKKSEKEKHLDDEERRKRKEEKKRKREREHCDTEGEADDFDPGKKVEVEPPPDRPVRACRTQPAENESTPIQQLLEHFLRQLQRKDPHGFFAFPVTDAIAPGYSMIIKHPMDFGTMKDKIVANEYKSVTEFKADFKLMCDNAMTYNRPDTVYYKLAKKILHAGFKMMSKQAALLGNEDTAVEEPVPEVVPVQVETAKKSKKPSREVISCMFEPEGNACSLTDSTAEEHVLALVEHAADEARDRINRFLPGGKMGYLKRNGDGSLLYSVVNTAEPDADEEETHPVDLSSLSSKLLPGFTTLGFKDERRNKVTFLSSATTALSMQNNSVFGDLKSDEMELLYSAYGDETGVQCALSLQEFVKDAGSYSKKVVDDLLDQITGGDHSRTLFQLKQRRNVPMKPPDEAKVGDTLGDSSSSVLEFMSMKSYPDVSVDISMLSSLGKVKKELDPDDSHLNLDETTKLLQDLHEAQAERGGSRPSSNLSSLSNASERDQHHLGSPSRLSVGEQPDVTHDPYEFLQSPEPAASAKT
Sequence of Serine/threonine-protein kinase/endoribonuclease IRE2 (Homo sapiens) (Q76MJ5 35-926 limits assumed): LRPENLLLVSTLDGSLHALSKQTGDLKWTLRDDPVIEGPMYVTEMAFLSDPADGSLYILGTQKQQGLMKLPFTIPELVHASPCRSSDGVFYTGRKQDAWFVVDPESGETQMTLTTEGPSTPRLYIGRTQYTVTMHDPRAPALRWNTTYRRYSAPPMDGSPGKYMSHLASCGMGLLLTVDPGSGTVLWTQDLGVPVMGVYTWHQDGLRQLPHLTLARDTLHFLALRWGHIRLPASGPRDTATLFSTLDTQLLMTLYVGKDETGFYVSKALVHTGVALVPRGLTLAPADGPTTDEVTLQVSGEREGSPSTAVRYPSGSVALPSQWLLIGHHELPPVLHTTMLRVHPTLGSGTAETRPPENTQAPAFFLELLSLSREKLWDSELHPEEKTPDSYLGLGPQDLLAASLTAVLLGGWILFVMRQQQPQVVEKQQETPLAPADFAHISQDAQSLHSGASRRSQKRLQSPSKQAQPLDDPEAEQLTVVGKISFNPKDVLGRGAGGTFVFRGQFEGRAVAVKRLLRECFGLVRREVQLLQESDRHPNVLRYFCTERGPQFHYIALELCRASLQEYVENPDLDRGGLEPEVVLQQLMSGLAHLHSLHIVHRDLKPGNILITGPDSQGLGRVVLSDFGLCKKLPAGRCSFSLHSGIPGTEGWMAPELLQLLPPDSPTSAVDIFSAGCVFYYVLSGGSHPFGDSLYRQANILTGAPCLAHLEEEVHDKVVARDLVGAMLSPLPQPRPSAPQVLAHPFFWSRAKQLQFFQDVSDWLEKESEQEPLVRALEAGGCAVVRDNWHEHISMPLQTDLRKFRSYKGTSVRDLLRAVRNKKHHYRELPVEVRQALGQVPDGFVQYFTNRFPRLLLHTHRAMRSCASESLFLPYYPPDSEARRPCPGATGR

Compound: COc1cc(Nc2nc(C)cc(-c3cnn4nc(OC)ccc34)n2)cc(C(F)(F)F)c1
- % of control [1]: 86%

- dTM [2]: -1.14 K
Compound: Cc1cc(CN)cc(C)c1-c1ncn(C)c1-c1cncn1C

- % of inhibition [3]: -30.9%
Compound: Cn1cc(-n2cnc3c(NCc4nc5cc(Cl)c(Cl)cc5[nH]4)nc(N4CCOCC4)nc32)cn1

Compound: COCC(=O)NC/C=C/c1ccc2ncnc(Nc3ccc(Oc4ccc(C)nc4)c(C)c3)c2c1 [CP-724714]
- % of control [4]: 100%

Compound: Nc1cnc(N2CCc3cc(S(=O)(=O)Nc4c(F)cc(Cl)cc4F)cc(N4CCCC4=O)c32)nc1 [TP-020n]
- % of control [5]: 100%

- % of control ([6]; at 1 µM): 99%
- % of control ([6]; at 5 µM): 81%
Compound: C=CC(=O)Nc1cccc(C(=O)Nc2ccc(Nc3cc(-c4[nH]c(SC)nc4C)ccn3)cc2)c1

Compound: CN(C)CCOc1ccc(-c2nc(-c3ccncc3)c(-c3ccc4c(c3)CC/C4=N\O)[nH]2)cc1
- % of control [7]: 100%

Compound: O=C(NOC[C@H](O)CO)c1ccc(F)c(F)c1Nc1ccc(I)cc1F
- % of control [8]: 79%
